pEC50: −log10 of the molar value.

Broadly, the pEC50 is the EC50 on a negative log10 scale, so that one unit is a factor of ten.

The target in the first data set is T1, Probable G-protein coupled receptor 27 (Homo sapiens, UniProt Q9NS67). The data set can be described thus: Agonist activity at human GPR27 expressed in HEK293 cells co-expressing FnLArrb2.GPR27V2LFc assessed as induction of beta-arrestin recruitment incubated for 10 mins measured followed by addition of D-luciferin by firefly-luciferase complementation assay.
T1 sequence (Q9NS67 whole entry): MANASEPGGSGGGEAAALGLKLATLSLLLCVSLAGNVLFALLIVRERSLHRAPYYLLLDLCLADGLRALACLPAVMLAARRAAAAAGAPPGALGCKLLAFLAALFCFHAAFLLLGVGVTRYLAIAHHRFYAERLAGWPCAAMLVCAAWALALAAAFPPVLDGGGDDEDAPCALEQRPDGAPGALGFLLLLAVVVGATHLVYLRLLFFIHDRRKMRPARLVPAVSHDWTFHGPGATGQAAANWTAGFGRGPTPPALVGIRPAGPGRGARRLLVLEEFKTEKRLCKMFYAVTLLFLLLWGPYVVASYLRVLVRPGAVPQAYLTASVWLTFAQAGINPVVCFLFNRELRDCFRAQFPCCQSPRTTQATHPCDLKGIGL
Details: not given
The format is functional, cell-based.
As to `N#Cc1ccc(C(=O)Nc2ccc(S(=O)(=O)Nc3ccccc3)cc2)c(F)c1`, the pEC50 was 6.64.
For `Cc1ccccc1NS(=O)(=O)c1ccc(NC(=O)c2ccc(Cl)cc2Cl)cc1`, the pEC50 was 5.91.
Consider `O=C(Nc1ccc(S(=O)(=O)Nc2ccc(Cl)cc2)cc1)c1ccc(Cl)cc1Cl`, for which the pEC50 is less than 4.00.
Same read-out and setting: the value for `O=C(Nc1ccc(S(=O)(=O)Nc2ccccn2)cc1)c1ccc(Cl)cc1Cl` was 5.52; that for `O=C(Nc1ccc(S(=O)(=O)Nc2ccccc2)cc1)c1ccc(C(F)(F)F)cc1F` was 6.44.
`O=C(Nc1ccc(S(=O)(=O)Nc2ccccc2)cc1)c1ccc2ccccc2c1`: the pEC50 was 5.07.
Consider `O=C(Nc1ccc(S(=O)(=O)Nc2ccccc2)cc1)c1ncc(Cl)cc1Cl`, for which the pEC50 was 5.24.
For `O=C(Nc1ccc(S(=O)(=O)Nc2ccccc2)cc1)c1ccc(Cl)cc1Br`, the negative-log EC50 (pEC50) was 5.99.
Same read-out and setting: as for `O=C(Nc1ccc(S(=O)(=O)Nc2ccccc2)cc1)c1cc2ccccc2oc1=O`, the figure is 5.11.
Consider `Cc1cc(Cl)ccc1C(=O)Nc1ccc(S(=O)(=O)Nc2ccccc2)cc1`, for which the pEC50 is 6.04.
Consider `O=C(NS(=O)(=O)c1ccc(NC(=O)c2ccc(Cl)cc2Cl)cc1)c1ccccc1`, for which the pEC50 is less than 4.00.
Turning to `O=C(Nc1cccc(S(=O)(=O)Nc2ccccc2)c1)c1ccc(Cl)cc1Cl`, the pEC50 is less than 4.00.
Consider `O=C(Nc1ccc(S(=O)(=O)Nc2ccccc2)cc1)c1ccc(Cl)cc1Cl`, for which the pEC50 is 6.34.
Turning to `O=C(Nc1ccc(S(=O)(=O)Nc2ccccc2)cc1)c1cc(F)c(Cl)cc1F`, the pEC50 is 6.85.
For the molecule `O=C(Cc1ccc(Cl)cc1Cl)Nc1ccc(S(=O)(=O)Nc2ccccc2)cc1`, the pEC50 is less than 4.00.
As to `O=S(=O)(Nc1ccccc1)c1ccc(NS(=O)(=O)c2ccc(Cl)cc2Cl)cc1`, the pEC50 was less than 4.00.
As to `Cc1ccc(NS(=O)(=O)c2ccc(NC(=O)c3ccc(Cl)cc3Cl)cc2)cc1`, the pEC50 was less than 4.00.
Take `COc1ccc(NS(=O)(=O)c2ccc(NC(=O)c3ccc(Cl)cc3Cl)cc2)cc1`: the pEC50 was less than 4.00.
For the molecule `COc1cc(Br)ccc1C(=O)Nc1ccc(S(=O)(=O)Nc2ccccc2)cc1`, the negative logarithm of the EC50 (pEC50) is 5.99.
`O=C(Nc1ccc(S(=O)(=O)Nc2ccccc2)cc1)c1ccc(Cl)nc1F`: the pEC50 was 5.64.
Regarding `O=C(Nc1ccccc1)c1ccc(NC(=O)c2ccc(Cl)cc2Cl)cc1`, the pEC50 was less than 5.00.
For the molecule `Cc1cc(Br)ccc1C(=O)Nc1ccc(S(=O)(=O)Nc2ccccc2)cc1`, the pEC50 was 6.07.
Same read-out and setting: as for `O=C(Nc1ccc(S(=O)(=O)Nc2ccccc2)cc1)c1ccc(I)cc1F`, the figure is 5.29.
For `CN(c1ccccc1)S(=O)(=O)c1ccc(NC(=O)c2ccc(Cl)cc2Cl)cc1`, the pEC50 is 5.59.
Still for that read-out and setting: as for `O=C(Nc1ccc(S(=O)(=O)NCc2ccccc2)cc1)c1ccc(Cl)cc1Cl`, the figure is less than 4.00; as for `O=C(Nc1ccc(S(=O)(=O)Nc2ccccc2)cc1)c1ccc(Cl)cc1F`, 5.40.
For the molecule `O=C(Nc1ccc(S(=O)(=O)Nc2cccc(Cl)c2)cc1)c1ccc(Cl)cc1Cl`, the pEC50 is 6.24.
Same read-out and setting: the value for `O=C(Nc1ccc(S(=O)(=O)Nc2ccccc2)cc1)c1ccc(Br)cc1F` was 6.32; that for `O=C(Nc1ccc(Cl)cc1Cl)c1ccc(S(=O)(=O)Nc2ccccc2)cc1` was less than 4.00; that for `O=C(Nc1ccc(S(=O)(=O)Nc2ccccc2Cl)cc1)c1ccc(Cl)cc1Cl` was 5.90.
On the same count and under the same terms, as for `O=C(Nc1ccc(S(=O)(=O)Nc2ncccn2)cc1)c1ccc(Cl)cc1Cl`, the figure is less than 4.00.

The test system of the next data set is HEK293. The data set can be described thus: Cytotoxicity against human HEK293 cells expressing FnLArrb2.GPR27V2LFc up to 33.3 uM incubated for 10 mins by MTT assay. The format is cell-based. The note with it: hek293, 10 min. (Formazan colour is commonly taken as a measure of viable cells.)
For `O=C(Nc1ccc(S(=O)(=O)Nc2ccccc2)cc1)c1ccc(C(F)(F)F)cc1F`, the Activity result is “Non-Toxic”.
Consider `Cc1cc(Cl)ccc1C(=O)Nc1ccc(S(=O)(=O)Nc2ccccc2)cc1`, for which the Activity entry was “Non-Toxic”.
The same measure, in the same setting: as for `O=C(Nc1ccc(S(=O)(=O)Nc2ccccc2)cc1)c1ccc(Cl)cc1Cl`, the entry is “Non-Toxic”.
On to `Cc1cc(Br)ccc1C(=O)Nc1ccc(S(=O)(=O)Nc2ccccc2)cc1`, for which the Activity result is “Non-Toxic”.

In the next data set the target is T1, Probable G-protein coupled receptor 27. Kind of data set: Agonist activity at human GPR27 expressed in HEK293 cells assessed as induction of beta-arrestin recruitment pretreated with substrate for 45 mins followed by compound addition and measured for 40 mins by NanoLuc luciferase complementation assay.
Details: not given
The format is functional, cell-based. (In general: Arrestin recruitment assays detect the binding of arrestin to an activated receptor.)
Consider `O=C(Nc1ccc(S(=O)(=O)Nc2nccs2)cc1)c1ccc(Cl)cc1Cl`, for which the pEC50 was 5.89.
Consider `O=C(Nc1ccc(S(=O)(=O)Nc2ccccc2)cc1)c1ccc(Cl)cc1Cl`, for which the pEC50 was 6.04.

Values taken from ChEMBL document CHEMBL4828750, “Structure-activity relationships of agonists for the orphan G protein-coupled receptor GPR27” (Eur J Med Chem, 2021).
